In patent US20230147718A1, “COMPOSITION FOR CANCER PREVENTION OR TREATMENT, CONTAINING, AS ACTIVE INGREDIENT, SALVIANOLIC ACID B OR TANSHINONE I” (GJMEDI, priority 2020, published 2023):
pKd: −log10 of the molar value.

Columns and labels:
KRAS G12V [1] = target: T1, KRAS G12V (Homo sapiens, UniProt P01116, G12V); test: Guanine nucleotide binding assay; parameters: made in house; host or cells: E. coli BL21 (DE3); conditions: in the presence of compound, 37° C., liquid scintillation counting
Procedure: The recombinant gene KRAS G12V was inserted into E. coli BL21 (DE3) for expression. The overexpressed protein was purified using affinity chromatography and gel filtration chromatography. Purified KRAS G12V protein was bound to Ni-NTA beads using binding buffer [50 mM Hepes (pH 7.5), 100 mM NaCl, 2 mM MgCl2, 1 mM EDTA, and 1 mM DTT] at 4° C. Ni-NTA beads bound with KRAS G12V proteins were washed with binding buffer and then reacted with radioisotope [α-^32P] GTP (2,500 cpm/pmol), GTP, and salvianolic acid B or tanshinone I at 37° C. The beads were then washed with wash buffer [20 mM Tris-HCl (pH 7.4), 100 mM NaCl, and 2 mM MgCl2]. 200 mM imidazole was used to elute the bead-bound KRAS G12V protein, and radioactive nucleotides were quantified by liquid scintillation counting.

[2] = tested on: AsPC-1 (pancreatic cancer); test: MTT cell viability assay; type: cell-based, human; conditions: AsPC-1, cultured 24 and 48 hours, increasing concentrations; time- and dose-dependent
Procedure: (§1) To verify the efficacy of salvianolic acid B (Sigma-Aldrich) and tanshinone I (Sigma-Aldrich) on tumor cells, MTT (3-(4,5-dimethylthiazol-2-yl)-2,5-diphenyltetrazolium bromide) assay was applied to measure cell viability.
(§2) For the experiment, AsPC-1 (pancreatic cancer), HCT116 (colon cancer), and NCI-H460 (lung cancer) were used as tumor cell lines, and each tumor cell was dispensed by 1×10^3 cells/well (100 μL). After dispensing, all cells were attached to the wells for 24 hours. […] After culturing the drug-treated tumor cells for 24 and 48 hours, MTT at a concentration of 5 mg/mL was added to each tumor cell, followed by culture for 90 minutes again. Finally, the optical density (OD) of the tumor cells was measured at 540 nm using a microplate reader (Molecular Devices, USA). The analysis was performed three or more times.

HCT116 (colon cancer) = test: MTT cell viability assay; type: cell-based, human; conditions: HCT116, cultured 24 and 48 hours, increasing concentrations; time- and dose-dependent
Procedure: as §1, §2

NCI-H460 (lung cancer) = test: MTT cell viability assay; type: cell-based, human; conditions: NCI-H460, cultured 24 and 48 hours, increasing concentrations; time- and dose-dependent
Procedure: as §1, §2

KRAS G12V [3] = target: T1, KRAS G12V; test: Isothermal titration calorimetry (ITC); conditions: 25° C., read-out: binding affinity KD
Procedure: In order to identify the affinity of salvianolic acid B or tanshinone I for the KRAS mutant KRAS G12V protein, isothermal titration calorimetry (ITC) was used. KRAS G12V protein was dialyzed using buffer [20 mM Tris-HCl (pH 7.4), 100 mM NaCl, and 2 mM MgCl2]. Next, salvianolic acid B or tanshinone I was dissolved using the same buffer, and then the prepared KRAS G12V protein and salvianolic acid B or tanshinone I were injected into an isothermal calorimeter to perform isothermal titration thermometry. Titration measurement was performed at 25° C., involved with 20 injections at an interval of 200 seconds while salvianolic acid B or tanshinone I was stirred at 1,000 rpm. ΔS was calculated from standard thermodynamic equations using the calculated K and ΔH values. Isothermal titration thermometric analysis was performed using a MicroCal AutoITC200 (GE Healthcare, Sweden), and data were analyzed using the Origin 7.0 program.

T1 sequence (P01116 1-188 isoform P01116-2 G12V): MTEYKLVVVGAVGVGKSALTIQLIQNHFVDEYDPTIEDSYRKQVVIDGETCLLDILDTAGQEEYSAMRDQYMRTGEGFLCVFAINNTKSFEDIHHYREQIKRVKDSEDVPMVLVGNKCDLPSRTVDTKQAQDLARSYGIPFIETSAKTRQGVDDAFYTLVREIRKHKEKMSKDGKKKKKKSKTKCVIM

Row | SMILES | activity of radioisotope [α-32P] GTP binding of KRAS G12V (KRAS G12V [1]) | cell viability [2] | cell viability (HCT116 (colon cancer)) | cell viability (NCI-H460 (lung cancer)) | pKd (KRAS G12V [3])
1 | O=C(/C=C/c1ccc(O)c2c1[C@H](C(=O)O[C@H](Cc1ccc(O)c(O)c1)C(=O)O)[C@@H](c1ccc(O)c(O)c1)O2)O[C@H](Cc1ccc(O)c(O)c1)C(=O)O [salvianolic acid B] | decreased | decrease in cell viability | decrease in cell viability | decrease in cell viability | 4.49
2 | Cc1coc2c1C(=O)C(=O)c1c-2ccc2c(C)cccc12 [tanshinone I] | decreased | decrease in cell viability | decrease in cell viability | decrease in cell viability | 4.68
